In patent US20250313535A1, “ALPHA 4 BETA 7 INTEGRIN MODULATORS AND USES THEREOF” (DICE MOLECULES SV, INC., priority 2022, published 2025):
Like-named read-outs stand apart in the source and are kept apart here.

Assays:
α4β7 integrin = α4β7 integrin (Homo sapiens (Human), UniProt P13612+P26010); assay: Integrin Adhesion Assay: Protocol 4 (MAdCAM-coated plate, RPMI-8866 cells with stable LOF mutation of the ITGB1 gene); format: cell-based
Procedure, shortened: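 RPMI-8866 cells with CRISPR/Cas9 knockout of ITGB1 (2×10^6/mL) were added to MAdCAM-coated wells with compound (1% DMSO) in HEPES/NaCl buffer with 1 mM MnCl2, 0.1 mM CaCl2 and 1% BSA, then incubated 1 h at 37 °C. After four washes, adherent cells were quantified by CellTiter-Glo luminescence. Percent inhibition versus DMSO and control compound was fitted to 4-parameter curves.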

α4β1 integrin = α4β1 integrin (Homo sapiens (Human), UniProt P05556+P13612); assay: Integrin Adhesion Assay: Protocol 5 (VCAM-coated plate, RPMI-8866 cells with stable LOF mutation of the ITGB7 gene); format: cell-based
Procedure, shortened: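 RPMI-8866 B cells with CRISPR/Cas9 ITGB7 knockout (clonal, verified by flow cytometry) adhered to VCAM-coated wells for 1 h at 37° C in HEPES/NaCl buffer with 1 mM MnCl2, 0.1 mM CaCl2, 1% BSA, 1% DMSO. Bound cells quantified by CellTiter-Glo luminescence after washing; % inhibition versus DMSO and control, 4-parameter fit.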

[1] = RPMI-8866 cells with stable LOF mutation of the ITGB1 gene, read-out: Mean IC50 α4β7 KO^a
[2] = RPMI-8866 cells with stable LOF mutation of the ITGB7 gene, read-out: Mean IC50 α4β1 KO^b
[3] = Protocol 4, RPMI-8866 cells with LOF mutation of ITGB1, MAdCAM, read-out: Mean IC50 α4β7 KO
[4] = Protocol 5, RPMI-8866 cells with LOF mutation of ITGB7, VCAM, read-out: Mean IC50 α4β1 KO

α4β1 integrin, sequence (P13612 34-1032): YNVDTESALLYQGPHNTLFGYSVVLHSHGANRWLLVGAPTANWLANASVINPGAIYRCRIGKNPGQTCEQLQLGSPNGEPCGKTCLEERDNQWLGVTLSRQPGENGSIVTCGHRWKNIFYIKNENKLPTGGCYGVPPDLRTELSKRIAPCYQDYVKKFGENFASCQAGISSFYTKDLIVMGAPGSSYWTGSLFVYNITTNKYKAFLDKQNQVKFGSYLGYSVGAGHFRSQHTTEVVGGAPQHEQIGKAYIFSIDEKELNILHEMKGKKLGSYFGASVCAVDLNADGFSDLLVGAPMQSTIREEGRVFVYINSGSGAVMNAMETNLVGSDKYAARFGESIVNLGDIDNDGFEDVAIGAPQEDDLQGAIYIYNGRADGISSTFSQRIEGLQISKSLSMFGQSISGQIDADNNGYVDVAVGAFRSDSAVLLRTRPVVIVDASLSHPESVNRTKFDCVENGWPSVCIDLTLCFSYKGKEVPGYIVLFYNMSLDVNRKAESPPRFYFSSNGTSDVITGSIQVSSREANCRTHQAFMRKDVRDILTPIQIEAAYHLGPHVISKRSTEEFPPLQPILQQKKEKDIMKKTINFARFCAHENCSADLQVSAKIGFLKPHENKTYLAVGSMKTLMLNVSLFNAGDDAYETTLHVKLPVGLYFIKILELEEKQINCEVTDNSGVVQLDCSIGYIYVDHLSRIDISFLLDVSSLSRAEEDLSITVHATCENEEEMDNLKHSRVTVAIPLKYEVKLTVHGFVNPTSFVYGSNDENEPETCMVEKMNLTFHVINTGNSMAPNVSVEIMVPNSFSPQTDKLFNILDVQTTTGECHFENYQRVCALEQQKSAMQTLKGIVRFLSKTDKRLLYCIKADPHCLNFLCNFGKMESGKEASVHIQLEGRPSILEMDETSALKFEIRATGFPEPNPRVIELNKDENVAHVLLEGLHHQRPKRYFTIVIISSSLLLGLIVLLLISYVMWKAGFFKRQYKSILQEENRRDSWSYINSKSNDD
α4β1 integrin, sequence (P05556 21-798): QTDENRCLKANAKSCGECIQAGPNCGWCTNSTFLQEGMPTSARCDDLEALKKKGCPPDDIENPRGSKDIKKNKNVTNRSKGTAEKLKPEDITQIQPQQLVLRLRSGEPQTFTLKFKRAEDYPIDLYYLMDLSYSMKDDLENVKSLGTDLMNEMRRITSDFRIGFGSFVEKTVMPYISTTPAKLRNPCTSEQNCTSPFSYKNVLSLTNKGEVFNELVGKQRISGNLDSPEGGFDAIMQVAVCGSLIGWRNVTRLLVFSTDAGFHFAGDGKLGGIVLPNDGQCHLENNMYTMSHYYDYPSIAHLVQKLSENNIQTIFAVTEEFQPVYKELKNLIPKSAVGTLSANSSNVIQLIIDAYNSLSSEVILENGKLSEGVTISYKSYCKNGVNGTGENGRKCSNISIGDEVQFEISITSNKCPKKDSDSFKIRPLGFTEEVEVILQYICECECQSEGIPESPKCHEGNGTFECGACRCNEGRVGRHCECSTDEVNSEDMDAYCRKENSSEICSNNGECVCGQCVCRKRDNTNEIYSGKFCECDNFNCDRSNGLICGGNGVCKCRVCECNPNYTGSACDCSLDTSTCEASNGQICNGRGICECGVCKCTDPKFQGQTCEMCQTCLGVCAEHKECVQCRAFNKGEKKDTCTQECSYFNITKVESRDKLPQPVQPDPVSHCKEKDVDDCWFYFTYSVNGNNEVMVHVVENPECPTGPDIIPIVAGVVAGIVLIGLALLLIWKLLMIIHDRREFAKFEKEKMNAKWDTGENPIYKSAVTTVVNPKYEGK
α4β7 integrin, sequence (P13612 34-1032): as the sequence (P13612 34-1032) above
α4β7 integrin, sequence (P26010 20-798): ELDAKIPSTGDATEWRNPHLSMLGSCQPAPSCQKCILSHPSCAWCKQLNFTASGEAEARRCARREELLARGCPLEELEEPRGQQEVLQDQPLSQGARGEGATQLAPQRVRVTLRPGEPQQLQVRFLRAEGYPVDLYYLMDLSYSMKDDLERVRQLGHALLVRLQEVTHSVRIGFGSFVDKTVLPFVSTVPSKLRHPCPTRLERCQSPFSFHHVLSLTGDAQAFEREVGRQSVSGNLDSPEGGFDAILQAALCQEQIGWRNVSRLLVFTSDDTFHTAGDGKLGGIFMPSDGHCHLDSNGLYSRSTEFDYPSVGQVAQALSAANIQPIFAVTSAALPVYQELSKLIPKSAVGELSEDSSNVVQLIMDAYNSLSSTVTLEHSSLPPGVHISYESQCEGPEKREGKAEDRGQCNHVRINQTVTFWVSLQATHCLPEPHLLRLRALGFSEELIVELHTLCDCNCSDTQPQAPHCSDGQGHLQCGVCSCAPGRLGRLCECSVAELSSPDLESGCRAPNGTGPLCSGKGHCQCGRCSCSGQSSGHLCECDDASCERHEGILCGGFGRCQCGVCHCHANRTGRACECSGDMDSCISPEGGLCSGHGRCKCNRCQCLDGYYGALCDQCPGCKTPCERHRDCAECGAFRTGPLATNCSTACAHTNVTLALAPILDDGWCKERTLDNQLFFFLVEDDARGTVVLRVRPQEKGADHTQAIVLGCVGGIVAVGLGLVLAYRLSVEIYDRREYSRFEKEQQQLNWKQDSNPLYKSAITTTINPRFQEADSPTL

Row | Structure (SMILES) | IC50 (α4β7 integrin; [1]) [nM] | IC50 (α4β1 integrin; [2]) [nM] | IC50 (α4β7 integrin; [3]) [nM] | IC50 (α4β1 integrin; [4]) [nM]
1 | COc1ccc(CN2CCC(F)(F)CC2)nc1-c1cccc2c(C[C@H](NC(=O)c3c(C)cccc3F)C(=O)O)cccc12 [Compound 600] | 10 to 100 | > 1000 |  | 
2 | COc1ccc(CN2CCCC(F)C2)c(OC)c1-c1cccc2c(C[C@H](NC(=O)C3(C(F)(F)F)CCN(CC(F)(F)F)CC3)C(=O)O)cccc12 (stereo partly shown) [Compound 788] |  |  | < 10 | > 1000
3 | COc1cccc(CN2CCCC(F)C2)c1-c1cccc2c(C[C@H](NC(=O)c3c(C)cccc3F)C(=O)O)cccc12 (stereo partly shown) [Compound 1015] |  |  | < 10 | 100 to 1000
4 | O=C(O)[C@H](Cc1cccc2c(-c3nccc4ccc(CCCN5CCCCC5)cc34)cccc12)NC(=O)C1(C(F)(F)F)CCN(C2COC2)CC1 [Compound 547] | < 10 | 100 to 1000 |  | 
5 | O=C(O)[C@H](Cc1cccc2c(-c3ncc(CCN4CCC(F)(F)CC4)c4ccccc34)cccc12)NC(=O)C1(C(F)(F)F)CCN(CC(F)(F)F)CC1 [Compound 980] |  |  | 10 to 100 | > 1000
6 | COc1cccc(CN2CCC(C(F)(F)F)CC2)c1-c1cccc2c(C[C@H](NC(=O)c3c(C)cccc3F)C(=O)O)cccc12 [Compound 1026] |  |  | 10 to 100 | > 1000
7 | Cn1c(=O)c(-c2cccc3c(C[C@H](NC(=O)C4(C(F)(F)F)CCN(CC(F)F)CC4)C(=O)O)cccc23)c(C(F)(F)F)c2cc(CN3CCC(F)(F)CC3)ccc21 [Compound 836] |  |  | 10 to 100 | 10 to 100
8 | O=C(O)[C@H](Cc1cccc2c(-c3ncc(CN4CC5CCC(C4)O5)c4ccccc34)cccc12)NC(=O)C1(C(F)(F)F)CCN(CC(F)(F)F)CC1 [Compound 872] |  |  | 10 to 100 | > 1000
9 | COc1ccc(CN2CCCCC2(C)C)c(OC)c1-c1cccc2c(C[C@H](NC(=O)c3c(C)cccc3F)C(=O)O)cccc12 [Compound 630] | < 10 | 100 to 1000 |  | 
10 | COc1ccc(CN2CCCCC2C)c(OC)c1-c1cccc2c(C[C@H](NC(=O)c3c(C)cccc3F)C(=O)O)cccc12 (stereo partly shown) [Compound 631] | < 10 | 100 to 1000 |  | 
11 | O=C(O)[C@H](Cc1cccc2c(-c3ncc(CN4CCC[C@@H](F)C4)cc3C3CC3)cccc12)NC(=O)C1(C(F)(F)F)CCN(CC(F)(F)F)CC1 [Compound 949] |  |  | < 10 | > 1000
12 | COc1ccc2c(c1-c1cccc3c(C[C@H](NC(=O)c4c(C)cccc4F)C(=O)O)cccc13)CCN(C)C2 [Compound 998] |  |  | < 10 | 100 to 1000
13 | COc1ccc(CN2CCC(F)CC2)c(OC)c1-c1cccc2c(C[C@H](NC(=O)c3c(C)cccc3F)C(=O)O)cccc12 [Compound 624] | < 10 | 100 to 1000 |  | 
14 | CC1(C)CCCN(Cc2cnc(-c3cccc4c(C[C@H](NC(=O)C5(C(F)(F)F)CCN(CC(F)(F)F)CC5)C(=O)O)cccc34)c3ccccc23)C1 [Compound 873] |  |  | 10 to 100 | > 1000
15 | COc1ccc(CN2CCC3(CCOC3)CC2)c(OC)c1-c1cccc2c(C[C@H](NC(=O)c3c(C)cccc3F)C(=O)O)cccc12 [Compound 655] | < 10 | > 1000 |  | 
16 | Cn1c(=O)c(-c2cccc3c(C[C@H](NC(=O)C4(C(F)(F)F)CCN(C5CCOC5(C)C)CC4)C(=O)O)cccc23)c(C(F)(F)F)c2ccccc21 (stereo partly shown) [Compound 508] | 10 to 100 | 100 to 1000 |  | 
17 | COc1ccc(CN(C)C)c(OC)c1-c1cccc2c(C[C@H](NC(=O)c3c(F)cccc3C3CC3)C(=O)O)cccc12 [Compound 645] | < 10 | > 1000 |  | 
18 | COc1cc(CN2CCC(F)(F)CC2)cc(OC)c1-c1cccc2c(C[C@H](NC(=O)C3(C(F)(F)F)CCN(CC(F)(F)F)CC3)C(=O)O)cccc12 [Compound 795] |  |  | < 10 | 100 to 1000
19 | CC1CCN(Cc2ccc3c(c2)c(C(F)(F)F)c(-c2cccc4c(C[C@H](NC(=O)C5(C(F)(F)F)CCN(CC(F)(F)F)CC5)C(=O)O)cccc24)c(=O)n3C)CCC1(F)F (stereo partly shown) [Compound 839] |  |  | 10 to 100 | 100 to 1000
20 | COc1ccc(CN2CCCCC2)nc1-c1cccc2c(C[C@H](NC(=O)C3(C(F)(F)F)CCN(CC(F)(F)F)CC3)C(=O)O)cccc12 [Compound 798] |  |  | < 10 | > 1000
21 | COc1cc2ncccc2c(C)c1-c1cccc2c(C[C@H](NC(=O)C3(C(F)(F)F)CCN(CC(F)(F)F)CC3)C(=O)O)cccc12 [Compound 738] |  |  | 10 to 100 | > 1000
22 | CC1(C)CCN(Cc2cnc(-c3cccc4c(C[C@H](NC(=O)C5(C(F)(F)F)CCN(CC(F)(F)F)CC5)C(=O)O)cccc34)c3ccccc23)CC1 [Compound 854] |  |  | < 10 | 100 to 1000

Row | Structure (SMILES) | IC50 (α4β7 integrin; [1]) [nM] | IC50 (α4β1 integrin; [2]) [nM] | IC50 (α4β7 integrin; [3]) [nM] | IC50 (α4β1 integrin; [4]) [nM]
23 | COc1cc(C(F)(F)F)cc(CN2CCCCC2)c1-c1cccc2c(C[C@H](NC(=O)c3c(C)cccc3F)C(=O)O)cccc12 [Compound 1009] |  |  | < 10 | > 1000
24 | COc1ccc(CN2C(C)CCCC2C)c(OC)c1-c1cccc2c(C[C@H](NC(=O)c3c(C)cccc3F)C(=O)O)cccc12 (stereo partly shown) [Compound 632] | < 10 | 100 to 1000 |  | 
25 | O=C(O)[C@H](Cc1cccc2c(-c3nccc4ccc(CCN5CCCCC5)cc34)cccc12)NC(=O)C1(C(F)(F)F)CCN(CC(F)(F)F)CC1 [Compound 718] |  |  | < 10 | > 1000
26 | COc1cccc(CCN2CCC[C@@H](F)C2)c1-c1cccc2c(C[C@H](NC(=O)c3c(C)cccc3F)C(=O)O)cccc12 [Compound 1036] |  |  | < 10 | > 1000
27 | COc1ccc(CN2CCC(C(F)(F)F)CC2)c(OC)c1-c1cccc2c(C[C@H](NC(=O)c3c(C)cccc3F)C(=O)O)cccc12 [Compound 569] | < 10 | 100 to 1000 |  | 
28 | Cn1c(=O)c(-c2cccc3c(C[C@H](NC(=O)C4(C(F)(F)F)CCN(CC(F)F)CC4)C(=O)O)cccc23)c(C(F)(F)F)c2cc(CN3CCC(c4ccccc4)CC3)ccc21 [Compound 838] |  |  | < 10 | 10 to 100
29 | O=C(O)[C@H](Cc1cccc2c(-c3ccccc3OCCN3CCCCC3)cccc12)NC(=O)C1(C(F)(F)F)CCN(CC(F)(F)F)CC1 [Compound 749] |  |  | 10 to 100 | > 1000
30 | COc1ccc(CN2CCC(C(F)(F)F)CC2)c(OC)c1-c1cccc2c(C[C@H](NC(=O)C3(C(F)(F)F)CCN(CC(F)(F)F)CC3)C(=O)O)cccc12 [Compound 844] |  |  | < 10 | 100 to 1000
31 | Cc1cccc(F)c1C(=O)N[C@@H](Cc1cccc2c(-c3c(C(F)(F)F)c4cc(CN(C)C)ccc4n(C)c3=O)cccc12)C(=O)O [Compound 451] | < 10 | 100 to 1000 |  | 
32 | Cc1cccc(F)c1C(=O)N[C@@H](Cc1cccc2c(-c3cc(CN4CCCCC4)ccn3)cccc12)C(=O)O [Compound 688] |  |  | 10 to 100 | > 1000
33 | CC[C@@H](N1CCC(C(=O)N[C@@H](Cc2cccc3c(-c4c(C(F)(F)F)c5ccccc5n(C)c4=O)cccc23)C(=O)O)(C(F)(F)F)CC1)C(F)(F)F [Compound 484] | 100 to 1000 | > 1000 |  | 
34 | COc1ccc(CN2CCCC(F)C2)c(C(F)(F)F)c1-c1cccc2c(C[C@H](NC(=O)C3(C(F)(F)F)CCN(CC(F)(F)F)CC3)C(=O)O)cccc12 (stereo partly shown) [Compound 820] |  |  | 10 to 100 | > 1000
35 | O=C(O)[C@H](Cc1cccc2c(-c3nccc4c(CN5CCOC(C(F)(F)F)C5)cccc34)cccc12)NC(=O)C1(C(F)(F)F)CCN(CC(F)(F)F)CC1 (stereo partly shown) [Compound 660] | 10 to 100 | > 1000 |  | 
36 | COc1cccc(F)c1C(=O)N[C@@H](Cc1cccc2c(-c3c(OC)ccc(CN4CCCCC4)c3OC)cccc12)C(=O)O [Compound 647] | < 10 | 100 to 1000 |  | 
37 | CC1(C)CCCN(Cc2cnc(-c3cccc4c(C[C@H](NC(=O)C5(C(F)(F)F)CCN(CC(F)F)CC5)C(=O)O)cccc34)c3ccccc23)CC1 [Compound 916] |  |  | < 10 | 100 to 1000
38 | COc1c(-c2cccc3c(C[C@H](NC(=O)C4(C(F)(F)F)CCN(CC(F)(F)F)CC4)C(=O)O)cccc23)c(=O)n(C)c2ccccc12 [Compound 739] |  |  | 10 to 100 | > 1000
39 | Cn1c(=O)c(-c2cccc3c(C[C@H](NC(=O)C4(C(F)(F)F)CCCN(CC5COC5)C4)C(=O)O)cccc23)c(C(F)(F)F)c2ccccc21 (stereo partly shown) [Compound 1049] |  |  | 100 to 1000 | > 1000
40 | COc1ccc2c(c1-c1cccc3c(C[C@H](NC(=O)c4c(C)cccc4F)C(=O)O)cccc13)CN(CC(F)F)CC2 [Compound 995] |  |  | 10 to 100 | 100 to 1000
41 | CC(C)(C)C1CCN(Cc2cccc3c(-c4cccc5c(C[C@H](NC(=O)C6(C(F)(F)F)CCN(CC(F)(F)F)CC6)C(=O)O)cccc45)nccc23)CC1 [Compound 659] | 10 to 100 | > 1000 |  | 
42 | COc1c(CN(C)C)ccc(Cl)c1-c1cccc2c(C[C@H](NC(=O)c3c(C)cccc3F)C(=O)O)cccc12 [Compound 1011] |  |  | < 10 | > 1000
43 | CN(C)CCc1ccc2c(c1)c(C(F)(F)F)c(-c1cccc3c(C[C@H](NC(=O)c4c(F)cccc4CN4CCC(F)(F)CC4)C(=O)O)cccc13)c(=O)n2C [Compound 711] |  |  | < 10 | 100 to 1000
44 | O=C(O)[C@H](Cc1cccc2c(-c3ncc(CN4CC5(CC5)C4)c4ccccc34)cccc12)NC(=O)C1(C(F)(F)F)CCN(CC(F)F)CC1 [Compound 908] |  |  | < 10 | 100 to 1000
